Like-named read-outs stand apart in the source and are kept apart here.
Experiments:
[1] = system: guinea pig foot pad stratum corneum; experiment: Increase in extensibility of guinea pig foot pad stratum corneum; set-up: Increase in stratum corneum extensibility: unit not given here
Experimental: The ability of an additive to enhance the delivery to skin of 2-hydroxyoctanoic acid was measured in terms of the increase in extensibility of guinea pig foot pad stratum corneum following contact with each solution.
In this experiment, pieces of guinea pig foot pad stratum corneum, equilibrated at a relative humidity of 65%, were immersed in each solution for 3 hours at 20° C., and then removed, blotted dry and re-equilibrated at the same relative humidity. The extensibility of each piece of guinea pig foot pad stratum corneum was measured before and after this treatment in an extensiometer according to the method described in European Pat. No. 7785.

physchem = details: octanol/water
[2] = Dielectric constant of oils measured in a liquid state; type: physicochemical
From the text: The product can also optionally comprise an oil, fat or wax, herein referred to as "oil" having a dielectric constant of not greater than 3.0.
Examples of preferred "oils", when employed, together with their dielectric constants measured when they are in a liquid state are given below: […]

[3] = as recorded in Handbook of Chemistry & Physics, 57th Edition 1976-77; cited from earlier work
[4] = system: guinea pig stratum corneum; experiment: Delivery of C14 labelled phenol to guinea pig stratum corneum; details: in words
Experimental: The phenol used in the preparation of each emulsion was C^14 labelled phenol.
Pieces of guinea pig stratum corneum were immersed in each of the above emulsions for 20 hours, after which they were removed, blotted dry and the amount of phenol retained by the corneum was measured by a radio tracer technique using a standard methodology.

Structure (SMILES)	Dielectric constant [2]	Dielectric constant [3]	other results
CCCCCCC(O)C(=O)O (stereo not drawn) [2-hydroxyoctanoic acid]	–	–	Increase in stratum corneum extensibility ([1]; 0.2 M 2-hydroxyoctanoic acid + additive at 5% w/w, 3 hours at 20° C., relative humidity 65%): 5; Increase in stratum corneum extensibility / delivery to skin, in words ([1]; conclusion in words): greatly enhanced; logP (physchem): 2.24
CCCCC/C=C\C/C=C\CCCCCCCC(=O)O [linoleic acid]	–	2.71	–
CCCCCCCCCC [n-decane]	–	1.99	–
CCCCCCCCCCCC [n-dodecane]	–	2.02	–
CCCCCCCC/C=C\CCCCCCCC(=O)O [oleic acid]	–	2.46	–
Oc1ccccc1 [phenol]	–	–	Amount of phenol delivered to the skin relative to ordinary emulsion (Control) [4]: enhanced when a gel phase is present

Now from value to molecule, other results behind:

Dielectric constant [2]	Structure (SMILES)	Dielectric constant [3]	other results
10.3	CCCCCCCCO [Octanol]	–	–
< 3.0	CCCCCCCCCCCCCCCC [n-hexadecane]	–	–
< 3.0	CCCCCCCCCCCCCCCCCC [n-octadecane]	–	–
< 3.0	CCCCCCCCCCCCCC [n-tetradecane]	–	–

— US4699924A, “Skin treatment composition” (priority 1983, dated 1987)
